Test results: patent US20250205186A1, “USE OF CHLOROGENIC ACID IN PREPARING MEDICINE OR PHARMACEUTICAL COMPOSITION FOR PREVENTING OR TREATING PAIN” (SICHUAN JIUZHANG BIOLOGICAL SCIENCE AND TECHNOLOGY CO., LTD., priority 2019, published 2025)

Experiments:
Type in all cases: in vivo, rat
IL-6 = assay: Serum IL-6 content by ELISA in bone cancer pain rats; details: for Cytokines IL-6 content in serum: after 15 days of administration; for Serum level of IL-6 compared with the model-negative group: after 15 days
Method: 60 SD rats were randomly selected, and after anesthesia, a small 1 cm incision was made in the upper tibial skin. A 10 mL syringe needle was used to puncture and perforate, then a 10 μL syringe was inserted into the bone marrow cavity, and 3 μL cell suspension containing 3×10^3 Walker rat breast cancer cells was slowly injected. The pinhole was sealed with bone wax, and the skin was sutured. After surgery, the rats were placed on a 37° C. hot plate for rewarming. After recovery, rats were returned to the cage for further breeding, to obtain the model group. In addition, 8 SD rats were randomly selected, and an equal volume of PBS solution was injected into the marrow cavity of the left upper tibia. The rest of the operations were the same as the model group, to obtain the sham operation group. The rats that had been successfully modeled were randomly divided into groups, eight rats for each group, that included high-dose chlorogenic acid group (80 mg/kg), middle-dose chlorogenic acid group (40 mg/kg), low-dose chlorogenic acid group (20 mg/kg), model negative group (N.S normal saline), and sham operation group (N.S normal saline). The rats were intraperitoneally injected with drugs for 15 days in a volume of 0.2 mL/10 g, once a day; the model-negative group and the sham operation group were given the same volume of normal saline. After the last administration, blood was collected from the eyeballs of the rats, and the animals in each group were sacrificed by neck removal. The blood samples were allowed to stand at room temperature for 20 minutes and then centrifuged. The supernatant was collected and the contents of TNF-α, IL-1β, and IL-6 in the peripheral blood serum of the […] were determined by ELISA.

DA = DA content in brain tissue by HPLC-EC in bone cancer pain rats; details: for DA content in the brain tissue: after 15 days of administration
Method: (§1) 60 SD rats were randomly selected, and after anesthesia, a small 1 cm incision was made in the upper tibial skin. A 10 mL syringe needle was used to puncture and perforate, then a 10 μL syringe was inserted into the bone marrow cavity, and 3 μL cell suspension containing […] Walker rat breast cancer cells was slowly injected. The pinhole was sealed with bone wax, and the skin was sutured. After surgery, the rats were placed on a 37° C. hot plate for rewarming. After recovery, rats were returned to the cage for further breeding, to obtain the model group. In addition, 8 SD rats were randomly selected, and an equal volume of PBS solution was injected into the marrow cavity of the left upper tibia. The rest of the operations were the same as the model group, to obtain the sham operation group. The rats that had been successfully modeled were randomly divided into groups, eight rats for each group, that included high-dose chlorogenic acid group (80 mg/kg), middle-dose chlorogenic acid group (40 mg/kg), low-dose chlorogenic acid group (20 mg/kg), model negative group (N.S normal saline), and sham operation group (N.S normal saline). The rats were intraperitoneally injected with drugs for 15 days in a volume of 0.2 mL/10 g, once a day; the model-negative group and the sham operation group were given the same volume of normal saline. After the rats were sacrificed, the hypothalamus was quickly separated, homogenized in an ice bath with perchloric acid, and centrifuged. The supernatant was collected, and the contents of NE, DA, and 5-HT were determined by HPLC-EC method (Hou […], Wang Na, et al, Effects of progesterone on morphine-induced conditioned place preference and levels of monoamine transmitters in rat brain. Chinese Journal of Pharmacology, 2006, 22(8), 980-983).

NE = NE content in brain tissue by HPLC-EC in bone cancer pain rats; details: for NE content in the brain tissue: after 15 days of administration
Method: as §1

5-HT = 5-HT content in brain tissue by HPLC-EC in bone cancer pain rats; details: for 5-HT content in the brain tissue: after 15 days of administration
Method: as §1

Structure (SMILES): O=C(/C=C/c1ccc(O)c(O)c1)O[C@@H]1C[C@](O)(C(=O)O)C[C@@H](O)[C@H]1O [Chlorogenic acid]
- Cytokines IL-6 content in serum (IL-6; 20 mg/kg ip once a day): 84.09 ± 5.16 ng/L
- Serum level of IL-6 compared with the model-negative group (IL-6; 20 mg/kg, p<0.05): lower than those in the model-negative group
- Cytokines IL-6 content in serum (IL-6; 40 mg/kg ip once a day): 78.73 ± 6.39 ng/L
- Serum level of IL-6 compared with the model-negative group (IL-6; 40 mg/kg, p<0.05): lower than those in the model-negative group
- Cytokines IL-6 content in serum (IL-6; 80 mg/kg ip once a day): 98.82 ± 4.54 ng/L
- Serum level of IL-6 compared with the model-negative group (IL-6; 80 mg/kg): the difference was not significant
- DA content in the brain tissue (DA; 20 mg/kg ip once a day): 1.38 ± 0.21 nmol/g
- DA content in brain tissue compared with the model-negative group (DA; 20 mg/kg, p<0.05): the difference was significant
- DA content in the brain tissue (DA; 40 mg/kg ip once a day): 1.46 ± 0.08 nmol/g
- DA content in brain tissue compared with the model-negative group (DA; 40 mg/kg, p<0.05): the difference was significant
- DA content in the brain tissue (DA; 80 mg/kg ip once a day): 1.15 ± 0.12 nmol/g
- DA content in brain tissue compared with the model-negative group (DA; 80 mg/kg, p>0.05): no significant difference
- NE content in the brain tissue (NE; 20 mg/kg ip once a day): 0.99 ± 0.18 nmol/g
- NE content in brain tissue compared with the model-negative group (NE; 20 mg/kg, p<0.05): the difference was significant
- NE content in the brain tissue (NE; 40 mg/kg ip once a day): 0.91 ± 0.15 nmol/g
- NE content in brain tissue compared with the model-negative group (NE; 40 mg/kg, p<0.05): the difference was significant
- NE content in the brain tissue (NE; 80 mg/kg ip once a day): 1.47 ± 0.26 nmol/g
- NE content in brain tissue compared with the model-negative group (NE; 80 mg/kg, p>0.05): no significant difference
- 5-HT content in the brain tissue (5-HT; 20 mg/kg ip once a day): 0.91 ± 0.15 nmol/g
- 5-HT content in brain tissue compared with the model-negative group (5-HT; 20 mg/kg, p<0.05): the difference was significant
- 5-HT content in the brain tissue (5-HT; 40 mg/kg ip once a day): 0.95 ± 0.19 nmol/g
- 5-HT content in brain tissue compared with the model-negative group (5-HT; 40 mg/kg, p<0.05): the difference was significant
- 5-HT content in the brain tissue (5-HT; 80 mg/kg ip once a day): 0.77 ± 0.11 nmol/g
- 5-HT content in brain tissue compared with the model-negative group (5-HT; 80 mg/kg, p>0.05): no significant difference
